How the values were obtained:
[1] = system: F. nucleatum (Fn) biofilm; test: Fn biofilm formation induced by Fn AI-2, crystal violet staining; assay type: cell-based, F. nucleatum (ATCC 25586); conditions: for OD590 nm: Fn + Fn AI-2 10% (v/v), sugar 2 mM, 48-72 h, smaller OD = more inhibition of biofilm, Fn/AI-2 control 1.5, Fn 0.46
Procedure: To test biofilm formation by Fn, a Fn culture broth (2 ml; a negative control group, the number of bacteria: 2×10^7/ml), a mixture of Fn culture broth (2 ml) and F. nucleatum AI-2 (purified from F. nucleatum secretary material of F. nucleatum culture broth using a C18 Sep-Pak reverse-phase column (Waters Co., Milford, Mass.); hereinafter, referred to as ‘Fn AI-2’; 10% (v/v) with respect to the total volume of the mixture with Fn culture broth), or a mixture of Fn culture broth (2 ml) and Fn AI-2 (10% (v/v) with respect to the total volume of the mixture with Fn culture broth) and each of QSI candidates was added to a 24-well plate with a glass slip (round, 12 mm radius), and cultured under anaerobic conditions for 48-72 hours. As the QSI candidates, sugars (D-rib, D-gal, D-Glu, D-Man, or D-ara) were used in an amount of 2 mM, and the furanone compound [(5Z)-4-bromo-5-(bromomethylene)-2(5H)-furanone] was used in an amount of 2 μM.
Biofilms formed on the cover slips were stained with 10% crystal violet [Tris(4-(dimethylamino)phenyl)methylium chloride] for 10 minutes, washed three times with PBS, and destained with 1 ml of acetone-alcohol (20:80, vol/vol). The optical density at 590 nm of the destaining solution containing crystal violet was measured using a microplate reader (a Wallac Victor3 microtiter, PerkinElmer Life Sciences, Waltham, Mass.). The smaller optical density (OD590) measured at 590 nm represents more inhibition of biofilm formation, that is, higher quorum sensing inhibitory effect of the used QSI candidate.

[2] = system: P. gingivalis (Pg) biofilm; test: Pg biofilm formation induced by Fn AI-2, fluorescence staining (confocal); assay type: cell-based, P. gingivalis (ATCC 33277); conditions: D-gal 200 mM vs furanone 20 μM
Procedure: Further, inhibitory effects of D-gal on Pg biofilm formation induced by Fn AI-2 were examined by fluorescence staining. 2 ml of Pg culture broth (the number of bacteria: 4×10^8/ml) was used, and Fn AI-2 was used in a volume of 10% (v/v) with respect to the total volume of a mixture with Pg culture broth. 200 mM of D-gal was used, and for comparison, the same test was performed using 20 μM of the furanone compound, instead of D-gal. Biofilms formed on the cover slip were stained with fluorescent materials using the live/dead-BacLight viability kit (Invitrogen, Grand Island, N.Y., USA) and observed using a confocal microscope (Carl Zeiss, LSM 700). […] Fluorescence intensities of the obtained individual fluorescence images were quantified using ZEN 2010 program of a confocal microscope, and shown in FIG. 6.

[3] = system: T. forsythia (Tf) biofilm; test: Tf biofilm formation induced by Fn AI-2, fluorescence staining (confocal); assay type: cell-based, T. forsythia (ATCC 43037); conditions: D-rib or D-gal 200 mM
Procedure: Further, inhibitory effects of individual QSI candidates on Tf biofilm formation induced by Fn AI-2 were examined by fluorescence staining. 2 ml of Tf culture broth (the number of bacteria: 2×10^8/ml) was used, and Fn AI-2 was used in a volume of 10% (v/v) with respect to the total volume of a mixture with Tf culture broth. As the QSI candidates, 200 mM of D-rib or D-gal was used, and 20 μM of the furanone compound was used. Biofilms formed on the cover slip were stained with fluorescent materials using the live/dead-BacLight viability kit (Invitrogen, Grand Island, N.Y., USA) and observed using a confocal microscope (Carl Zeiss, LSM 700). […] Fluorescence intensities of the obtained individual fluorescence images were quantified using ZEN 2010 program of a confocal microscope, and shown in FIG. 9.

[4] = system: T. forsythia (Tf) biofilm; test: Tf biofilm formation induced by Fn secretory material, transwell, crystal violet; assay type: cell-based; conditions: for OD590: Fn upper / Tf lower chamber, sugar 2 mM, 48-72 h, Fn/Tf control 0.55, Tf alone 0.17
Procedure: In order to examine efficacies of quorum sensing inhibitor (QSI) candidates on biofilm formation of periodontopathogenic bacteria which is induced by a secretory material of F. nucleatum (Fn), a test was performed using a transwell system. AI-2 naturally secreted by Fn is contained in the secretory material of Fn. Therefore, in the test using the transwell system, Fn AI-2 was not directly added to bacteria, but Fn was put in an upper chamber and Pg or Tf was put in a lower chamber. Biofilms cultured and formed in the presence or absence of QSI candidates were stained with crystal violet, followed by analysis. These conditions are to evaluate whether Pg or Tf biofilm formation is influenced by not a purified AI-2 but an AI-2-containing secretory material naturally secreted by Fn, and whether QSI candidates such as D-gal is able to inhibit the biofilm formation if the biofilm is then formed.
More specifically, the transwell system (24-well) has an upper chamber and a lower chamber which are separated from each other by a membrane of 0.4 μm. 500 μl of F. nucelatum (Fn) culture broth (the number of bacteria: 2×10^7 CFU/ml) was cultured in the upper chamber. A glass slip was placed in the lower chamber, and then the same number of P. gingivalis(Pg) or T. forsythia(Tf) was inoculated in 1 ml of medium and cultured for 48-72 hours. The same QSI candidates were added to the upper and lower chambers. As the QSI candidates, 2 mM of sugar (D-rib or D-gal) was used and 2 μM of the furanone compound [(5Z)-4-bromo-5-(bromomethylene)-2(5H)-furanone] was used. In order to examine whether biofilm formation of the bacteria in the lower chamber is influenced by Fn secretory material and QSI candidates, the biofilms formed on the glass slip were stained with crystal violet, and then quantified (see Examples 3 to 5).

F. nucleatum = test: Effect on bacterial growth of F. nucleatum (OD 600 nm); assay type: cell-based; conditions: D-galactose 100 mM, 37° C., anaerobic, 24-48 hours, vs control 0 mM
Procedure: In detail, F. nucleatum was cultured in the presence of 0 mM (control group) and 100 mM of D-galactose at 37° C. under anaerobic conditions for 24-48 hours, and then optical density at 600 nm was determined to measure cell growth.

S. mutans (Sm) biofilm = test: S. mutans biofilm formation, crystal violet staining; assay type: cell-based, Streptococcus mutans (ATCC 25175); conditions: D-gal 2 mM
Procedure: 2 mL (2×10^7/ml) of the culture broth of a representative cariogenic bacterium S. mutans (Sm) and 2 mL (2×10^7/ml) of the culture broth of one of normal oral flora, S. oxalis (SO) were added to a saliva-coated glass slip (round, 12 mm radius), respectively and cultured with 0 mM or 2 mM of D-galactose to form biofilms. The formed biofilms were stained with crystal violet in the same manner as in Examples 3-6 to test biofilm formation according to the presence of D-galactose. Further, the biofilms were stained with fluorescent materials using the live/dead-BacLight viability kit (Invitrogen, Grand Island, N.Y., USA), followed by analysis. For comparison, 2 μM of the furanone compound was used instead of D-galactose to perform the same test.

Compound | OD590 nm [1] | QSI inhibitory effect (inhibitory effect on Fn biofilm formation), in words ([1]; crystal violet, sugars 2 mM, compared to negative control Fn/AI-2) | inhibitory effect on Pg biofilm formation, in words [2] | inhibitory effect on Tf biofilm formation, in words [3] | inhibitory effect on Tf biofilm formation induced by Fn secretory material, in words ([4]; D-gal 2 mM compared to D-rib 2 mM) | OD590 [4] | effect on bacterial growth (cell growth curve, OD 600 nm), in words (F. nucleatum) | OD590 nm (S. mutans (Sm) biofilm; Sm on saliva-coated glass slip, Sm control 0.48) | inhibitory effect on Sm biofilm formation, in words (S. mutans (Sm) biofilm; crystal violet, furanone compound 2 μM)
O=C[C@H](O)[C@@H](O)[C@@H](O)[C@H](O)CO [D-gal, D-galactose] | 0.57 | excellent QSI inhibitory effect | equivalent to that of the furanone compound | most excellent inhibitory effect | remarkably excellent inhibitory effect, compared to D-rib | 0.36 | does not affect bacterial growth | 0.37 | significant inhibitory effect
O=C[C@H](O)[C@H](O)[C@H](O)CO [D-rib, D-ribose, reference compound] | 0.77 | – | – | inhibited | – | 0.69 | – | – | –

Source: patent publication US20190224222A1, “METHOD OF INHIBITING QUORUM SENSING USING D-GALACTOSE” (Seoul National University R&DB Foundation, priority 2014, published 2019)
